Common to all, as to format: binding
Set-up in all cases: key: No binding of immunoglobulin for the defined peptide variant, detection negative: 0; Binding of immunoglobulin for the defined peptide variant, detection positive: +

Test [1] concerns immunoglobulins in human plasma. Briefly: Cellulose-immobilized 13-mer peptide variants incubated with human plasma, anti-human IgG-AP detection. The note with it: human plasma as sample, diluted 1:10,000 in blocking buffer, 3 h room temperature. Summed up:
(§1)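 SPOT-type 13-mer peptides on cellulose with a (βA)(βA) spacer, blocked in 5% saccharose/4% BSA in T-TBS pH 8.0. Incubated 3 h at RT with human IgG-Fc (1 μg/ml) or human serum/plasma (1:10,000), or with blocking buffer alone as the albumin specificity control. Bound IgG detected with AP-anti-human IgG (1.2 μg/ml) and NBT/BCIP colorimetric development at pH 9.5.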

The subject of another test is human IgG-Fc. Briefly: Cellulose-immobilized 13-mer peptide variants incubated with human IgG-Fc, anti-human IgG-AP detection. The conditions noted are these: IgG-Fc 1 μg/ml in blocking buffer, 3 h room temperature. In a few lines: as §1
The next test has as its system serum albumin. Briefly: Cellulose-immobilized 13-mer peptide variants incubated with serum albumin (negative control), anti-human IgG-AP detection. The conditions noted are these: blocking buffer without addition, 3 h room temperature. In a few lines:
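Spot membrane, (βA)(βA) spacer; T-TBS pH 8.0 wash, block 5% saccharose/4% BSA. 3 h RT with IgG-Fc 1 μg/ml, serum 1:10,000, or block buffer only (specificity control). 3× wash, AP-anti-human IgG 1.2 μg/ml, NBT/BCIP in pH 9.5 buffer.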

Bridge positions count the residues as written; N and C are the ends. Square brackets hold non-standard residues; d marks the D form. Ends that are not written are not given here. cellulose = not defined here; βAla = NCCC(=O)O

Regarding “12K: cellulose-bound 13-mer variant DCAWHLGELVWKT-(βA)(βA) (DCAWHLGELVWKT-{βAla-βAla-cellulose}; not fully specified; printed as DCAWHLGELVWKT-(βA)(βA); reading uncertain)”, the “Result for incubation with human plasma (immunoglobulin binding detection)” value (from here on “Result for incubation with human plasma”) in test [1] turned out to be 0. In the test on human IgG-Fc, the “Result for incubation with human IgG-Fc (immunoglobulin binding detection)” value (from here on “Result for incubation with human IgG-Fc”) turned out to be 0. For the same substance, in the test with serum albumin, the “Result for incubation with serum albumin (immunoglobulin binding detection)” value (from here on “Result for incubation with serum albumin”) came out at 0.
For “06I: cellulose-bound 13-mer variant DCAWHIGELVWCT-(βA)(βA) (DCAWHIGELVWCT-{βAla-βAla-cellulose}; disulfide 2-12 (inferred); not fully specified (N-terminus); printed as DCAWHIGELVWCT-(βA)(βA); reading uncertain)”, the “Result for incubation with human plasma” value in test [1] was found to be 0. Moreover, in the test with human IgG-Fc, the “Result for incubation with human IgG-Fc” value is recorded as 0. In addition, the “Result for incubation with serum albumin” value in the test with serum albumin turned out to be 0.
For the substance “03H: cellulose-bound 13-mer variant DCHWHLGELVWCT-(βA)(βA) (DCHWHLGELVWCT-{βAla-βAla-cellulose}; disulfide 2-12 (inferred); reading uncertain; also: printed as DCHWHLGELVWCT-(βA)(βA))”, the “Result for incubation with human plasma” value in test [1] stood at 0. Also, the “Result for incubation with human IgG-Fc” value in the test with human IgG-Fc turned out to be 0. In addition, the “Result for incubation with serum albumin” value with serum albumin stood at 0.
As to “03K: cellulose-bound 13-mer variant DCKWHLGELVWCT-(βA)(βA) (DCKWHLGELVWCT-{βAla-βAla-cellulose}; disulfide 2-12 (inferred); reading uncertain; also: printed as DCKWHLGELVWCT-(βA)(βA))”, in test [1], the “Result for incubation with human plasma” value is on record as 0. Besides, the “Result for incubation with human IgG-Fc” value in the test on human IgG-Fc is “+”. Moreover, the “Result for incubation with serum albumin” value with serum albumin is given as 0.
Consider “09E: cellulose-bound 13-mer variant DCAWHLGEEVWCT-(βA)(βA) (DCAWHLGEEVWCT-{βAla-βAla-cellulose}; disulfide 2-12 (inferred); reading uncertain; also: printed as DCAWHLGEEVWCT-(βA)(βA))”, for which the “Result for incubation with human plasma” value in test [1] was found to be 0. For the same substance, the “Result for incubation with human IgG-Fc” value with human IgG-Fc was found to be 0. In addition, the “Result for incubation with serum albumin” value in the test on serum albumin was determined as 0.
In the case of “08V: cellulose-bound 13-mer variant DCAWHLGVLVWCT-(βA)(βA) (DCAWHLGVLVWCT-{βAla-βAla-cellulose}; disulfide 2-12 (inferred); reading uncertain; also: printed as DCAWHLGVLVWCT-(βA)(βA))”, the “Result for incubation with human plasma” value in test [1] is recorded as 0. Also, the “Result for incubation with human IgG-Fc” value in the test on human IgG-Fc came to 0. Also, the “Result for incubation with serum albumin” value in the test on serum albumin was 0.
With “05A: cellulose-bound 13-mer variant DCAWALGELVWCT-(βA)(βA) (disulfide 2-12 (inferred); not fully specified (N-terminus, C-terminus); printed as DCAWALGELVWCT-(βA)(βA); also: cellulose-bound)”, the “Result for incubation with human plasma” value in test [1] was 0. For the same substance, the “Result for incubation with human IgG-Fc” value in the test with human IgG-Fc is given as 0. In addition, the “Result for incubation with serum albumin” value in the test with serum albumin is on record as 0.
As to “01Q: cellulose-bound 13-mer variant QCAWHLGELVWCT-(βA)(βA) (QCAWHLGELVWCT-{βAla-βAla-cellulose}; disulfide 2-12 (inferred); reading uncertain; also: printed as QCAWHLGELVWCT-(βA)(βA))”, the “Result for incubation with human plasma” value in test [1] stood at 0. In the test with human IgG-Fc, the “Result for incubation with human IgG-Fc” value is “+”. Moreover, the “Result for incubation with serum albumin” value in the test on serum albumin is given as 0.
On to “08G: cellulose-bound 13-mer variant DCAWHLGGLVWCT-(βA)(βA) (DCAWHLGGLVWCT-{βAla-βAla-cellulose}; disulfide 2-12 (inferred); not fully specified (N-terminus); printed as DCAWHLGGLVWCT-(βA)(βA); reading uncertain)”, for which the “Result for incubation with human plasma” value in test [1] amounted to 0. Besides, the “Result for incubation with human IgG-Fc” value in the test on human IgG-Fc was determined as 0. In the test with serum albumin, the “Result for incubation with serum albumin” value amounted to 0.
Take “03T: cellulose-bound 13-mer variant DCTWHLGELVWCT-(βA)(βA) (DCTWHLGELVWCT-{βAla-βAla-cellulose}; disulfide 2-12 (inferred); reading uncertain; also: printed as DCTWHLGELVWCT-(βA)(βA))”: the “Result for incubation with human plasma” value in test [1] was “+”. In the test with human IgG-Fc, the “Result for incubation with human IgG-Fc” value is recorded as “+”. In the test on serum albumin, the “Result for incubation with serum albumin” value was found to be 0.
Turning to “04K: cellulose-bound 13-mer variant DCAKHLGELVWCT-(βA)(βA) (DCAKHLGELVWCT[βAla][βAla]; disulfide 2-12 (inferred); also: cellulose-bound)”, the “Result for incubation with human plasma” value in test [1] is “+”. Besides, the “Result for incubation with human IgG-Fc” value in the test with human IgG-Fc is “+”. In addition, in the test on serum albumin, the “Result for incubation with serum albumin” value is 0.
“04G: cellulose-bound 13-mer variant DCAGHLGELVWCT-(βA)(βA) (DCAGHLGELVWCT[βAla][βAla]; disulfide 2-12 (inferred); also: cellulose-bound)”: the “Result for incubation with human plasma” value in test [1] was 0. Moreover, the “Result for incubation with human IgG-Fc” value with human IgG-Fc is on record as 0. For the same substance, the “Result for incubation with serum albumin” value in the test with serum albumin is recorded as 0.
With “10I: cellulose-bound 13-mer variant DCAWHLGELIWCT-(βA)(βA) (DCAWHLGELIWCT-{βAla-βAla-cellulose}; disulfide 2-12 (inferred); reading uncertain; also: printed as DCAWHLGELIWCT-(βA)(βA))”, the “Result for incubation with human plasma” value in test [1] turned out to be 0. In addition, the “Result for incubation with human IgG-Fc” value with human IgG-Fc is reported as 0. Moreover, in the test with serum albumin, the “Result for incubation with serum albumin” value amounted to 0.
Take “07N: cellulose-bound 13-mer variant DCAWHLNELVWCT-(βA)(βA) (DCAWHLNELVWCT-{βAla-βAla-cellulose}; disulfide 2-12 (inferred); not fully specified (N-terminus); printed as DCAWHLNELVWCT-(βA)(βA); reading uncertain)”: the “Result for incubation with human plasma” value in test [1] stood at 0. Further, the “Result for incubation with human IgG-Fc” value in the test with human IgG-Fc was determined as 0. Besides, in the test on serum albumin, the “Result for incubation with serum albumin” value stood at 0.
Take “01C: cellulose-bound 13-mer variant CCAWHLGELVWCT-(βA)(βA) (CCAWHLGELVWCT[βAla][βAla]; cysteine pairing not given here; also: bound to cellulose support)”: the “Result for incubation with human plasma” value in test [1] came to 0. Also, in the test on human IgG-Fc, the “Result for incubation with human IgG-Fc” value was determined as 0. The “Result for incubation with serum albumin” value in the test on serum albumin is listed as 0.
